Laboratory results from patent US9402839B2, “Selective targeting agents for mitochondria” (University of Pittsburgh—Of the Commonwealth System of …, priority 2006, dated 2016).

Tests used:
MECs = assay: Determination of intracellular superoxide radicals (DHE oxidation, flow cytometry) in ActD-treated MECs; format: cell-based, mouse; conditions: 10 μM pretreatment, ActD 100 ng/mL; nearly two-fold ActD-induced increase
Description: Determination of intracellular superoxide radicals Oxidation-dependent fluorogenic dye, dihydroethidium (“DHE”, Molecular Probes) was used to evaluate intracellular production of superoxide radicals. DHE is cell permeable and, in the presence of superoxide, is oxidized to fluorescent ethidium which intercalates into DNA. The fluorescence of ethidium was measured using a FACscan (BECTON-DICKINSON, Rutherford, N.J.) flow cytometer, equipped with a 488-nm argon ion laser and supplied with the Cell Quest software. Mean fluorescence intensity from 10,000 cells were acquired using a 585-nm bandpass filter (FL-2 channel).

[1] = tested on: rats subjected to volume-controlled hemorrhagic shock; assay: Survival of rats subjected to volume-controlled hemorrhagic shock; format: in vivo, rat
Description: Surgical procedures to obtain vascular access. All study protocols using rats followed the guidelines for the use of experimental animals of the US National Institutes of Health and were approved by the Institutional Animal Care and Use Committee at the University of Pittsburgh.
Male specific pathogen-free Sprague Dawley rats (CHARLES RIVER LABORATORIES, Wilmington, Mass.), weighing 150-250 g, were housed in a temperature-controlled environment with a 12-h light/dark cycle. The rats had free access to food and water. For experiments, rats were anesthetized with intramuscular ketamine HCl (30 mg/kg) and intraperitoneal sodium pentobarbital (35 mg/kg). Animals were kept in a supine position during the experiments. Lidocaine (0.5 ml of a 0.5% solution) was injected subcutaneously to provide local anesthesia at surgical cut-down sites. In order to secure the airway, a tracheotomy was performed and polyethylene tubing (PE 240; BECTON-DICKINSON, Sparks, Md.) was introduced into the trachea. Animals were allowed to breathe spontaneously.
The right femoral artery was cannulated with polyethylene tubing (PE 10). This catheter was attached to a pressure transducer that allowed instantaneous measurement of mean arterial pressure (MAP) during the experiment. For experiments using the pressure-controlled hemorrhagic shock (HS) model, the right jugular vein was exposed, ligated distally, and cannulated with polyethylene tubing (PE 10) in order to withdraw blood. For experiments using the volume-controlled hemorrhagic shock (HS) model, the jugular catheter was used to infuse the resuscitation solution and the right femoral vein, which was cannulated with a silicon catheter (CHRONIC-CATH, NORFOLK MEDICAL, Skokie, Ill.), was used to withdraw blood.
All animals were instrumented within 30 min. Heparin (500 U/kg) was administered immediately after instrumentation through the femoral vein. Animals were placed in a thermal blanket to maintain their body temperature at 37° C. The positioning of the different devices aforementioned was checked postmortem.
Survival of rats subjected to volume-controlled hemorrhagic shock. Following surgical preparation and a 5-min stabilization period to obtain baseline readings, rats were subjected to hemorrhagic shock. Bleeding was carried out in 2 phases.
Initially, 21 ml/kg of blood was withdrawn over 20 min. Immediately thereafter, an additional 12.5 ml/kg of blood was withdrawn over 40 min. […]
Blood pressure was recorded continuously using a commercial strain-gauge transducer, amplifier, and monitor (S90603a, SPACELABS, Redmond, Wash.). […] Hemoglobin concentration [Hb], lactate and glucose concentration were determined using an auto-analyzer (Model ABL 725, […], Westlake, Ohio). […]

caspases 3 and 7 = assay: Caspases 3 and 7 activity assay in rat gut mucosa homogenate after hemorrhagic shock; format: in vivo; conditions: intraluminal 10 μM versus vehicle
Description: After 2 h of shock, the animals were euthanized with an intracardiac KCl bolus injection. The ileum was rapidly excised from the ileocecal valve to the most proximal gut segment. The tips of each segment were discarded. In order to assay caspases 3 and 7 activity and phospholipids peroxidation, mucosa samples were collected from gut segments immediately after hemorrhage and stored at −80° C. For permeability measurements, each segment was converted into an everted gut sac, as previously described by Wattanasirichaigoon et al., see Wattanasirichaigoon, S. et al., Effect of mesenteric ischemia and reperfusion or hemorrhagic shock on intestinal mucosal permeability and ATP content in rats, SHOCK, 12:127-133 (1999).
Caspases 3 and 7 activity assay. Caspases 3 and 7 activity was measured using a commercially available assay kit, CASPASE GLO™ 3/7 assay kit (PROMEGA, Madison, Wis.). […] At the end of incubation period, the luminescence of each sample was measured using a plate reading chemiluminometer (ML1000, DYNATECH LABORATORIES, Horsham, Pa.). Activity of caspases 3 and 7 was expressed as luminescence intensity (arbitrary units per mg protein). Protein concentrations were determined using the BIORAD assay (BIO-RAD LABORATORIES, Inc., Hercules, Calif.). […]

`CC(C)C[C@@H](/C=C/[C@H](Cc1ccccc1)C(=O)N1CCC[C@H]1C(=O)N[C@H](C(=O)N[C@@H](CCCNC(=O)OCc1ccccc1)C(=O)NC1CC(C)(C)N([O])C(C)(C)C1)C(C)C)NC(=O)OC(C)(C)C` [XJB-5-131] was tested, and the “intracellular superoxide generation in MECs” value (MECs) was “completely inhibited”, the “rats surviving longer than 3 hours after completion of the hemorrhage protocol” value ([1]; 2 μmol/kg i.v.) was “Three of the six” and the “survival versus vehicle-treated rats” value ([1]; 2 μmol/kg i.v. infusion during last 20 min of hemorrhage, no resuscitation) was “survived significantly longer”. The “rats surviving the whole 6 hour post-bleeding observation period” value ([1]; 2 μmol/kg i.v., six rats) was “one”, the “beneficial dose, times smaller than the TEMPOL dose of previous studies” value ([1]; ~0.1 mg/kg versus TEMPOL 30 mg/kg bolus+30 mg/kg per h) was “about 300 fold” and the “caspase 3 and 7 activity in ileal mucosa after hemorrhagic shock” value (caspases 3 and 7) was “significantly decreased”.
